This note sets out measurements from patent publication US4568490A, “Aminopropylaminobleomycin derivatives and process for preparation thereof” (Zaidan Hojin Biseibutsu Kagaku Kenkyu Kai, priority 1981, dated 1986).

One data set has as its system Hela S3 cells. Description: Growth inhibitory activity against Hela S3 cells. The data set is classed as cell-based. To be noted: Cu-free form; Hela S3, 3 days incubation with compound. The protocol: The percentage growth inhibition was calculated using the equation: […] wherein A is the ultimate number of cells on the third day from the addition of a test sample, B is the ultimate number of cells in the control (without the addition of test sample), and C is the number of cells on the day of addition of the test sample.

Data set [1] has as its system Mycobacterium smegmatis ATCC 607. As to the kind of experiment: Antimicrobial activity, agar plate-cylinder method. The data set is classed as cell-based. To be noted: Cu-free form; bleomycin A2 (Cu-free form) standard assumed 1,000 mcg/mg. Here is the method: (§1) The activity was assayed against the above test microorganisms by the method of agar plate-cylinder, assuming the potency of bleomycin A2 (Cu-free form), used as standard, to be 1,000 mcg/mg.

The subject of data set [2] is Lymphocytic leukemia P-388. Description: In vivo antitumor activity, murine lymphocytic leukemia P-388. To be noted: BDF1-SLC mice, i.p. transplant, once daily for 9 days, 30 days observation; T/C more than 130 effective. Here is the method: The following data with respect to the testing of a group of the presently claimed substances in vivo according to a standard test method involving murine lymphocytic leukemia P-388 is presented to lend further assurance as to the utility of the compounds as inhibitors of mammalian tumors.
Lymphocytic leukemia P-388 cells (1×10^5 /0.2 ml) were transplanted intraperitoneally into male BDF1 -SLC mice (5 mice/group). Each of the compounds of this invention was diluted with physiological saline to various concentrations. Each dilution was administered at a dose of 0.1 ml/10 g of body weight once daily for 9 days, starting on the day after the day of the transplantation. The mice of the control group were administered physiological saline.
The average number of days that the group receiving the compound of this invention survived was calculated. The figure obtained was divided by the average number of survival days for the control group, and was multiplied by 100 (T/C (%)).
T/C value more than 130 was considered to be effective.

The test system of a further data set is Bacillus subtilis. Description: Antimicrobial activity, agar plate-cylinder method. The data set is classed as cell-based. To be noted: Cu-free form; bleomycin A2 (Cu-free form) standard assumed 1,000 mcg/mg. Here is the method: (1) Antimicrobial activity against Mycobacterium smegmatis ATCC 697 and Bacillus subtilis.
as §1

Another data set relates to ICR strain mice. Description: Pulmonary toxicity (pulmonary fibrosis) in mice, intraperitoneal injection. The data set is classed as in vivo. To be noted: 5 mg/kg i.p. once a day for 10 days; for Grade of pulmonary fibrosis, % / Incidence of pulmonary fibrosis, % / Incidence: number of mice suffering from pulmonary fibrosis / Grade: total score of pulmonary fibrosis/total number of test animal: autopsy after 5 weeks; for Incidence: number of mice suffering from pulmonary fibrosis: affected/total mice; for Grade: total score of pulmonary fibrosis/total number of test animal: score 0-6 points; for Grade of pulmonary fibrosis, Ratio / Incidence of pulmonary fibrosis, Ratio: reference of the ratio not stated. An outline of the steps: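 Male ICR mice, 15 weeks old, 9 per group, received 5 mg/kg intraperitoneally once daily for 10 days. They were autopsied after 5 weeks' observation for pulmonary fibrosis incidence and grade: 1, alveolar exudate/septal fibrosis-like change; 2, fibrosis in several areas; 4, scattered fibrosis; 6, fibrosis over >2/3 of area.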

In the next data set the test system is ICR mice. As to the kind of experiment: Pulmonary toxicity (pulmonary fibrosis) in mice, intratracheal instillation. The data set is classed as in vivo. To be noted: 16 μg/50 μl/mouse intratracheally, sacrificed 4 weeks after instillation; for Grade: total score of pulmonary fibrosis/total number of samples: score 0-6 points. The protocol: Male 15 weeks old ICR mice were used. Sixteen μg/50 μl/mouse of each test sample was intratracheally instilled. The mice were sacrificed 4 weeks after instillation to examine the incidence and grade of pulmonary fibrosis. The evaluation was made by comparing the number of administered mice suffering from pulmonary fibrosis and the grade of the disease.
In Tables 4A and 4B, the grade was numerically rated as follows:
1 point: Accumulation of exudate in pulmonary alveoli and fibrosis-like change in alveolar septum.
2 points: Fibrosis in several areas.
4 points: Scattered fibrosis.
6 points: Fibrosis in more than two-thirds of the total area.

For the compound `Cc1c(N)nc(C(CC(N)=O)NCC(N)C(N)=O)nc1C(=O)NC(C(=O)NC(C)C(O)C(C)C(=O)NC(C(=O)NCCc1nc(-c2nc(C(=O)NCCC[N+](C)(C)CCC[N+](C)(C)CCCNCC3CCCCCCC3)cs2)cs1)C(C)O)C(OC1OC(CO)C(O)C(O)C1OC1OC(CO)C(O)C(OC(N)=O)C1O)c1cnc[nH]1` (stereo not shown) [Compound No. 42, 3-{N,N--Dimethyl-N--[3'-(N,N--dimethyl-N--(3"-cyclooctylmethylaminopropyl)amino)propyl]amino}propylaminoBLM], in the data set with Hela S3 cells, the “50% growth inhibition concentration (ID50) of Cu--free compound against cultured Hela cell” value amounted to 0.51 µg/mL. Moreover, in data set [1], the “Antimicrobial potency of Cu--free compound, against Mycobacterium smegmatis ATCC 607” value is 26000 mcg potency per mg. Besides, in data set [2], the “Max. T/C on Mouse Lymphocytic Leukemia P 388” value was determined as 177%. In addition, the “Antimicrobial potency of Cu--free compound, against Bacillus subtilis” value in the data set with Bacillus subtilis worked out at 14600 mcg potency per mg. In the data set on ICR strain mice, the “Grade of pulmonary fibrosis, %” value came out at 0%; the “Incidence of pulmonary fibrosis, %” value is given as 0%; the “Incidence: number of mice suffering from pulmonary fibrosis” value (“Incidence: number of mice suffering” for short) was 0/9; the “Grade: total score of pulmonary fibrosis/total number of test animal” value is given as 0/27. In the data set on ICR strain mice, the “Grade of pulmonary fibrosis, Ratio” value was 0.00 and the “Incidence of pulmonary fibrosis, Ratio” value came to 0.00.
`Cc1c(N)nc(C(CC(N)=O)NCC(N)C(N)=O)nc1C(=O)NC(C(=O)NC(C)C(O)C(C)C(=O)NC(C(=O)NCCc1nc(-c2nc(C(=O)NCCC[N+](C)(C)CCC[N+](C)(C)CCCN(Cc3ccccc3)Cc3ccccc3)cs2)cs1)C(C)O)C(OC1OC(CO)C(O)C(O)C1OC1OC(CO)C(O)C(OC(N)=O)C1O)c1cnc[nH]1` (stereo not shown) [Compound No. 41, 3-{N,N--Dimethyl-N--[3'-(N,N--dimethyl-N--(3"-dibenzylaminopropyl)amino)propyl]amino}propylaminoBLM]: the “50% growth inhibition concentration (ID50) of Cu--free compound against cultured Hela cell” value in the data set on Hela S3 cells was 0.66 µg/mL. In data set [1], the “Antimicrobial potency of Cu--free compound, against Mycobacterium smegmatis ATCC 607” value was found to be 16000 mcg potency per mg. Also, the “Max. T/C on Mouse Lymphocytic Leukemia P 388” value in data set [2] turned out to be 184%. For the same compound, in the data set on Bacillus subtilis, the “Antimicrobial potency of Cu--free compound, against Bacillus subtilis” value turned out to be 7100 mcg potency per mg. Moreover, in the data set on ICR strain mice, the “Grade of pulmonary fibrosis, %” value was 0%; the “Incidence of pulmonary fibrosis, %” value amounted to 0%; the “Incidence: number of mice suffering” value is reported as 0/9; the “Grade: total score of pulmonary fibrosis/total number of test animal” value was 0/27. In the data set with ICR strain mice, the “Grade of pulmonary fibrosis, Ratio” value stood at 0.00 and the “Incidence of pulmonary fibrosis, Ratio” value was 0.00.
For the compound `Cc1c(N)nc(C(CC(N)=O)NCC(N)C(N)=O)nc1C(=O)NC(C(=O)NC(C)C(O)C(C)C(=O)NC(C(=O)NCCc1nc(-c2nc(C(=O)NCCC[N+](C)(C)CCCNCC3CCCCCCC3)cs2)cs1)C(C)O)C(OC1OC(CO)C(O)C(O)C1OC1OC(CO)C(O)C(OC(N)=O)C1O)c1cnc[nH]1` (stereo not shown) [compound 36, 3-{N,N--Dimethyl-N--[3'-(cyclooctylmethylamino)propyl]amino}propylaminoBLM], the “50% growth inhibition concentration (ID50) of Cu--free compound against cultured Hela cell” value with Hela S3 cells is 0.29 µg/mL. Also, the “Antimicrobial potency of Cu--free compound, against Mycobacterium smegmatis ATCC 607” value in data set [1] turned out to be 21840 mcg potency per mg. Besides, the “Max. T/C on Mouse Lymphocytic Leukemia P 388” value in data set [2] was found to be 150%. Moreover, the “Antimicrobial potency of Cu--free compound, against Bacillus subtilis” value with Bacillus subtilis turned out to be 20000 mcg potency per mg.
The corresponding values for `Cc1c(N)nc(C(CC(N)=O)NCC(N)C(N)=O)nc1C(=O)NC(C(=O)NC(C)C(O)C(C)C(=O)NC(C(=O)NCCc1nc(-c2nc(C(=O)NCCCN(CCCN(Cc3ccccc3)Cc3ccccc3)Cc3ccccc3)cs2)cs1)C(C)O)C(OC1OC(CO)C(O)C(O)C1OC1OC(CO)C(O)C(OC(N)=O)C1O)c1cnc[nH]1` (stereo not shown) [Compound No. 40, 3-{N--benzyl-N--[3'-(dibenzylamino)propyl]amino}propylaminoBLM] are 1.90 µg/mL, 4450 mcg potency per mg, 154% and 479 mcg potency per mg.
The corresponding values for `Cc1c(N)nc(C(CC(N)=O)NCC(N)C(N)=O)nc1C(=O)NC(C(=O)NC(C)C(O)C(C)C(=O)NC(C(=O)NCCc1nc(-c2nc(C(=O)NCCCN(C)CCCNCc3c4ccccc4cc4ccccc34)cs2)cs1)C(C)O)C(OC1OC(CO)C(O)C(O)C1OC1OC(CO)C(O)C(OC(N)=O)C1O)c1cnc[nH]1` (stereo not shown) [compound 21, 3-{N--Methyl-N--[3'-(9-anthramethylamino)propyl]amino}propylaminoBLM] are 0.80 µg/mL, 13250 mcg potency per mg, 148% and 4504 mcg potency per mg.
Turning to `Cc1c(N)nc(C(CC(N)=O)NCC(N)C(N)=O)nc1C(=O)NC(C(=O)NC(C)C(O)C(C)C(=O)NC(C(=O)NCCc1nc(-c2nc(C(=O)NCCCN(C)CCCNCC(c3ccccc3)c3ccccc3)cs2)cs1)C(C)O)C(OC1OC(CO)C(O)C(O)C1OC1OC(CO)C(O)C(OC(N)=O)C1O)c1cnc[nH]1` (stereo not shown) [compound 17, 3-{N--Methyl-N--[3'-(2",2"-diphenylethylamino)propyl]amino}propylaminoBLM], in the data set on Hela S3 cells, the “50% growth inhibition concentration (ID50) of Cu--free compound against cultured Hela cell” value stood at 1.00 µg/mL. Besides, the “Antimicrobial potency of Cu--free compound, against Mycobacterium smegmatis ATCC 607” value in data set [1] worked out at 21084 mcg potency per mg. Moreover, in the data set with Bacillus subtilis, the “Antimicrobial potency of Cu--free compound, against Bacillus subtilis” value turned out to be 3554 mcg potency per mg. Moreover, in the data set with ICR strain mice, the “Grade of pulmonary fibrosis, %” value is 7%; the “Incidence of pulmonary fibrosis, %” value worked out at 20%; the “Incidence: number of mice suffering” value is 1/5; the “Grade: total score of pulmonary fibrosis/total number of test animal” value is reported as 1/15. Also, in the data set with ICR strain mice, the “Grade of pulmonary fibrosis, Ratio” value worked out at 0.08 and the “Incidence of pulmonary fibrosis, Ratio” value is reported as 0.32. Further, in the data set on ICR mice, the “Grade of pulmonary fibrosis, %” value is reported as 7%; the “Incidence of pulmonary fibrosis, %” value came to 22%; the “Incidence: number of mice with pulmonary fibrosis/number of mice” value is reported as 2/9; the “Grade: total score of pulmonary fibrosis/total number of samples” value is reported as 2/27.
On to `COc1ccc(CNCCCN(C)CCCNC(=O)c2csc(-c3csc(CCNC(=O)C(NC(=O)C(C)C(O)C(C)NC(=O)C(NC(=O)c4nc(C(CC(N)=O)NCC(N)C(N)=O)nc(N)c4C)C(OC4OC(CO)C(O)C(O)C4OC4OC(CO)C(O)C(OC(N)=O)C4O)c4cnc[nH]4)C(C)O)n3)n2)c(OC)c1` (stereo not shown) [compound 13, 3-{N--Methyl-N--[3'-(o,p-dimethoxybenzylamino)propyl]amino}propylaminoBLM], for which the “50% growth inhibition concentration (ID50) of Cu--free compound against cultured Hela cell” value with Hela S3 cells amounted to 1.30 µg/mL. Besides, the “Antimicrobial potency of Cu--free compound, against Mycobacterium smegmatis ATCC 607” value in data set [1] came to 5351 mcg potency per mg. Moreover, in the data set on Bacillus subtilis, the “Antimicrobial potency of Cu--free compound, against Bacillus subtilis” value was 5312 mcg potency per mg. Also, in the data set on ICR strain mice, the “Grade of pulmonary fibrosis, %” value was determined as 11%; the “Incidence of pulmonary fibrosis, %” value is 33%; the “Incidence: number of mice suffering” value was 2/6; the “Grade: total score of pulmonary fibrosis/total number of test animal” value is listed as 2/18. In the data set on ICR strain mice, the “Grade of pulmonary fibrosis, Ratio” value amounted to 0.13 and the “Incidence of pulmonary fibrosis, Ratio” value stood at 0.53. Also, in the data set with ICR mice, the “Grade of pulmonary fibrosis, %” value is 15%; the “Incidence of pulmonary fibrosis, %” value is listed as 22%; the “Incidence: number of mice with pulmonary fibrosis/number of mice” value was 2/9; the “Grade: total score of pulmonary fibrosis/total number of samples” value is listed as 4/27.
